From ChEMBL document CHEMBL1157539, “Thousands of chemical starting points for antimalarial lead identification” (Nature, 2010)

Tested on: Plasmodium falciparum
Experiment: GSK_TCMDC: Inhibition of Plasmodium falciparum 3D7 in whole erythrocytes, using parasite LDH activity as an index of growth.
Type: functional, organism-based
Settings: Plasmodium falciparum, 3D7

SMILES	XC50 [nM]
CCOc1ccc(CCC(=O)O)cc1OCC	1030
Cc1ccc(O)c(Nc2c3c(c(C#N)c4nc5ccccc5n24)CCC3)c1	1250
O=C(NCCN1CCCCC1)c1ccc(Nc2nccc(Nc3ccc(Oc4ccccc4)cc3)n2)cc1	553
OC(CNc1ccnc(Nc2cccc(OCCCN3CCOCC3)c2)n1)c1ccccc1 (centres undefined)	924
COc1cccc(CNCC(C)(C)c2nc(-c3ccc(Cl)c(O)c3)c(-c3ccncc3)[nH]2)c1	693
Cc1cccc2nc(-c3ccc(-c4cccc(CNCc5ccccc5)c4)s3)[nH]c12	741
O=S(=O)(NCCN1CCCC1)c1ccc(-c2ccc(CNCc3ccccc3)cc2)cc1	775
Cc1cc(-c2nc3ccc(N4CCN(C)CC4)cc3[nH]2)nn1Cc1cc(Cl)ccc1OCC(C)C	878
COc1ccc(OC)c(C(O)CNC(C)C)c1 (centres undefined)	56
CC(C)CNCc1cccc(-c2ccc(CN(CCCN3CCN(C)CC3)C(=O)/C=C/c3ccccc3)cc2)c1	857
CO/C(=C\C=C\c1cc2cc(Cl)c(Cl)cc2[nH]1)C(=O)NCCCN1CCN(C2CCCCC2)CC1	1010
CCOc1ccc(C(=O)N2CCOC(CCN3CCC(c4ccccc4)CC3)(c3ccc(Cl)c(Cl)c3)C2)cc1 (centres undefined)	854
Cc1ccn2c(N(Cc3ccccc3)C(=O)c3ccc(Cl)c(Cl)c3)c(-c3ccccc3)nc2c1	987
Cc1cc(NC(=O)Nc2ccc(I)c(OCCN(C)C)c2)ccc1Br	625
O=C(NC1c2ccccc2Oc2ccccc21)c1ccccc1O	844
O=C(NC1CC1)c1ccc(N2CCC(c3ccccc3)CC2)nc1	1110
O=C(NC1CCN(c2ccnc3cc(Cl)ccc23)C1)c1ccc(F)cc1F (centres undefined)	372
COc1ccc(C=CC(=O)Nc2ccc(N3CCCC3)cc2)cc1	1280
Cc1cccc(-c2nn(-c3ccccc3)cc2C(=O)Nc2nnc(C)o2)c1	1160
CC(Cc1ccc(OCCN2CCN(c3cccc(C(F)(F)F)c3)CC2)cc1)NCC(O)c1cccc(C(F)(F)F)c1 (centres undefined)	181
COc1ccc(CCn2c(=N)c(C(=O)NCc3cccnc3)cc3c(=O)n4cccc(C)c4nc32)cc1	1400
Nc1c2ccccc2nc2cc(C(F)(F)F)ccc12	842
O=C(NCCNc1ccnc(Nc2ccc(F)cc2)n1)Nc1ccc2c(c1)OCO2	682
CCNc1cc(C(=O)N[C@@H](Cc2ccccc2)[C@H](O)CNCc2cccc(-n3ccnc3)c2)cc(N2CCCC2=O)c1	635
CCOc1cc(N)c2nc3ccc([N+](=O)[O-])cc3cc2c1	145

SMILES	XC50 [nM]
CC(C)c1ccc(NC(=O)c2ccc(C(=O)NC3CCN(Cc4ccsc4)C3)cc2)cc1 (centres undefined)	1030
Nc1nccc2ccc(-c3ccnc(NCc4cccnc4)n3)cc12	462
CCc1nc(N)nc(N)c1-c1cccc(Cl)c1	193
O=C(Nc1ccc(OC(F)(F)F)cc1)Nc1ccc([N+](=O)[O-])cc1	878
O=c1cc(NCCCNCc2ccc(Cl)c(Cl)c2)[nH]c2ccc(Oc3ccccc3)cc12	850
CC(C)(CNCc1ccc(F)c(F)c1)c1nc(-c2ccnc(N)n2)c(-c2ccc(Cl)c(O)c2)[nH]1	740
Cc1cc(N[C@@H](CC(C)C)C(=O)NCCc2ccccc2)nc(NCc2ccccc2C)n1	906
CN1CCC(N(Cc2ccc(-c3ccc(C(F)(F)F)cc3)nc2)C(=O)Cn2c(CCc3cccc(F)c3F)cc(=O)c3ccccc32)CC1	1100
O=C(N[C@H]1CCN(Cc2ccc(OC3CCN(Cc4ccccc4)CC3)cc2)C1)c1ccc(Cl)c(Cl)c1	728
COc1cccc(-c2ccc(C(=O)NC3CCN(Cc4ccc(N(C)C)cc4)CC3)s2)c1	1390
c1ccc(-c2cc3cccc(-c4nc5cnccc5[nH]4)c3o2)cc1	115
COc1c(C2CCN(CCCCNC(=O)c3ccc(-c4ccc(C#N)cc4)cc3)CC2)ccc2c1C(C)(C)CCC2(C)C	411
CC(=O)Nc1nc(C(=O)Nc2ccc(-c3ccc(-c4nc5cc(F)ccc5[nH]4)cc3)cc2)cs1	460
N=C1NC(c2ccccc2)(c2ccccc2)C(=O)N1CC=Cc1ccccc1	598
COc1ccc(-c2cc(Nc3nc(-c4cccc(Cl)c4)nc4ccccc34)ccn2)cc1	727
COc1ccc(N(c2nc(-c3cc(Cl)ccc3Cl)cs2)C2CCNC2)cc1 (centres undefined)	873
Cc1cc(S(=O)(=O)N2CCCCC(c3ccc(C(F)(F)F)cc3)=N2)c(Cl)cc1Cl	504
COC(=O)/C=C/c1ccc(CCC(C)NCC(O)c2cccc(Cl)c2)cc1 (centres undefined)	935
CN(C)c1ccc(C(c2ccc(N(C)C)cc2)c2cc([N+](=O)[O-])ccc2Cl)cc1	911
CN1CCC(NCc2cccc(-c3ccc(S(=O)(=O)NCCc4ccccn4)cc3)c2)CC1	827
CN1CCN(c2nc(NCCNc3ccc([N+](=O)[O-])cc3)c3ccccc3n2)CC1	1320
COc1ccc(F)cc1-c1ccc(C(=O)N2CCCN(c3ccc(C#N)cn3)CC2)cc1	112
COc1nc(NCC(C)C)nc(Oc2ccc(=O)n(Cc3ccccc3)n2)n1	631
COc1ccc(CN2CCC(CNCC(c3ccccc3)c3ccccc3)CC2)cc1	228
Cc1cccc2nc(-c3ccc(-c4cccc(NC(=O)C(C)CN(C)C)c4)s3)[nH]c12 (centres undefined)	724

SMILES	XC50 [nM]
CCCCCCCC1CCN(C[C@H](O)c2ccnc3ccc(OC)cc23)CC1	956
Cc1sc(CNCCCNc2cc(=O)c3ccccc3[nH]2)c(C(F)(F)F)c1C	734
CN(C)c1ccc(CN2CCC(CNC(=O)c3cc(-c4cccc(F)c4)cs3)C2)cc1 (centres undefined)	1020
COc1ccc2nc3cc(Cl)ccc3c(NCCCO)c2c1	783
C[C@H](NC(=O)c1c(CN2CCN(C(=O)C(C)(C)C)CC2)c(-c2cccs2)nc2ccccc12)C1CCCCC1	1180
NS(=O)(=O)c1cccc(-c2ccc3nccc(-c4cccc(S(N)(=O)=O)c4)c3c2)c1	1270
Cc1ccc(CN2CCCN(Cc3cccc(C(=O)Nc4ccc(C(C)(C)C)cc4)c3)CC2)s1	1130
CCCCCCCc1ccc(-c2c(C)[nH]c(C)c(Cl)c2=O)cn1	361
N#Cc1ccc(N2CCN(Cc3cccc(-c4cccc(-c5nc6cc(C(F)(F)F)ccc6[nH]5)c4)c3)CC2)nc1	962
CC(=O)c1c(CC(=O)O)c2ccccc2n1O	735
Cc1c(-c2ccc(C(=O)NC3CC(C)(C)NC(C)(C)C3)cc2)[nH]c2cc(Cl)c(Cl)cc12	751
CS(=O)(=O)c1cccc(-c2cnc(N)c3cc(-c4ccc5c(c4)OCO5)ccc23)c1	1040
Cc1ccccc1CNc1noc(-c2sccc2Br)n1	380
O=C(/C=C/c1ccc(Cl)c(Cl)c1)NCCCCCN1CCC(NC(=O)c2ccc(F)cc2F)CC1	759
OC(CNCc1ccco1)Cn1c2ccc(Br)cc2c2cc(Br)ccc21 (centres undefined)	1070
Cc1nc(-c2ccncc2)sc1C(=O)Nc1ccc(Cl)cc1C(=O)Nc1ccc(Cl)cc1	759
CCOc1cc(-c2nnc3[nH]c(=O)n(C)c(=O)c3n2)ccc1OC(C)C	400
CCC(=O)Nc1ccc(C(O)CN2CCC3(C=Cc4ccccc4O3)CC2)cc1 (centres undefined)	1200
COc1ccc2nccc([C@@H](O)CN3CCC(NCc4[nH]c5ccccc5c4F)CC3)c2c1	247
CCc1ccc(CN2CCC(C(=O)Nc3ccc(-c4nc5ccccc5[nH]4)cc3)CC2)o1	610
N#Cc1nc2ccc(OCCN(Cc3ccccc3C(F)(F)F)c3ccc(C#N)c(C(F)(F)F)c3)cc2s1	855
Cc1cccc2nc(-c3cccc(-c4ccc(CNCCNC(=O)c5ccnn5C)cc4)c3)[nH]c12	167
Cc1cc(=O)c2cc(Oc3cccc(OC(F)(F)F)c3)ccc2[nH]1	862
CN1CC[C@H](N(Cc2ccccc2F)c2ccc(C#N)c(Cl)c2)C1	1270
COc1cc(CNC2Cc3ccccc3C2)ccc1Oc1ccc2nc[nH]c2c1	949

SMILES	XC50 [nM]
COCCNCc1ccc(-c2ccc(CNc3ccc4ncccc4c3)cc2)cc1	1040
CS(=O)(=O)Cc1ccc(Nc2nccc(-c3c(-c4cccc(NC(=O)c5c(F)cccc5F)c4)nn4ncccc34)n2)cc1	162
N#Cc1cccc(NC(=O)c2ccc(S(=O)(=O)NCC3CCCN3CC3CCCCC3)cc2)c1 (centres undefined)	1050
COc1cc(F)c2nccc([C@@H](O)CN3CCC(NCc4cc5c(cc4F)OCCO5)CC3)c2c1	679
CC(C)(C)c1ccc(CNCC(C)(C)c2nc(-c3ccnc(N)n3)c(-c3ccc(Cl)c(O)c3)[nH]2)cc1	697
N#Cc1ccc2[nH]c(-c3ccccc3)nc2c1	698
Oc1ccc(CCNc2nc(NCCCOc3ccccc3-c3cccnc3)nc(N3CCNCC3)n2)cc1	1040
O=C(Cc1cccc(Cl)c1)Nc1cccc(-c2c[nH]c3nc(Nc4ccccc4)ncc23)c1	678
CC(C)CNCc1ccc(-c2cccc(CN(CCN(C)C)C(=O)CCC3CCCC3)c2)cc1	809
N#Cc1ccc(N2CCN(Cc3ccc(-c4cccc(-c5nc6ccccc6[nH]5)c4)cc3)CC2)nc1	908
COc1ccc(CCNCc2cc3c(C(C)(C)C)nn(-c4ccc(Cl)cc4)c3[nH]c2=O)cc1OC	148
O=C(c1cccc(-c2cccc(-c3nc4cc(F)ccc4[nH]3)c2)c1)N1CCCCC1CN1CCC(O)C1 (centres undefined)	882
COc1ccc(-c2cncc3ccc(C(=O)NCc4ccncc4)nc23)cc1	736
CCN1CCC(N(Cc2ccc(-c3ccc(C(F)(F)F)cc3)cc2)C(=O)Cn2c(CCc3cccc(F)c3F)nc(=O)c3ccccc32)CC1	1060
CCCCN(CCCC)Cc1cc(N(C)c2ccc([N+](=O)[O-])cn2)ccc1O	544
O=C(Cc1cccc(Cl)c1)Nc1ccc(N2CCC(NCc3ccc4ncccc4c3)CC2)cc1	1230
Cc1ccccc1C1CCN(c2ccc(NC(=O)c3ccc(Cl)nc3)cc2)CC1	1030
O=C1OC(c2cc3ccccc3n2S(=O)(=O)c2ccccc2)(c2cc3ccccc3n2S(=O)(=O)c2ccccc2)c2ccccc21	846
Cc1cc(NC(=O)Nc2cccc(C#N)c2)c2ccccc2n1	581
CN1CCc2ccc(NC(=O)Nc3ccc(Cl)c(Cl)c3)cc2C1	724
O=C(Nc1ccc2[nH]c(-c3ccccc3)nc2c1)c1cc(-c2ccc3c(c2)OCCO3)n[nH]1	769
CC[C@@H]([C@@H](CC(C)C)C(=O)N[C@@H](CCCCNC(=O)OCc1ccccc1)C(=O)Nc1ccccn1)N(O)C=O	108
O=C(Nc1nc(-c2ccccn2)cc2ccccc12)c1cccc(Cl)c1	754
c1ccc(CCNc2ncnc3c2[nH]c2ccccc23)cc1	601
